According to article PMC5428418, “Differential expression of chemosensory-protein genes in midguts in response to diet of Spodoptera litura” (Scientific Reports, 2017):
Like-named read-outs stand apart in the source and are kept apart here.

Assays:
recombinant SlitCSP8 = recombinant SlitCSP8 (Spodoptera litura, UniProt A0A0P0EUM0); test: Fluorescence competitive binding assay (1-NPN displacement), SlitCSP8; conditions: for binding affinity to SlitCSP8 (in words): competitive binding with 1-NPN; for IC50 SlitCSP8 / IC50: competitor's concentration halving the initial fluorescence, protein 2 μM, ligand 0 to 20 μM, 1-NPN probe; for Kd SlitCSP8 / Kd: dissociation constant of the competitor calculated from IC50: KD = [IC50]/(1 + [1-NPN]/K1-NPN); for IC50: read-out: IC50 SlitCSP8; for Kd: read-out: Kd SlitCSP8
Description: The fluorescence spectra were recorded on an F-4500 FL Fluorescence Spectrophotometer (HITACHI) in a 1 cm light path quartz cuvette at 23 °C. The slit width used for excitation and emission was 5 nm. The compounds used to investigate the binding abilities of SlitCSPs were purchased from Sigma-Aldrich with the highest purity and stored as specified instruction by the manufacturer. […] The fluorescent probe N-phenyl-1-naphthylamine (1 − NPN) and all ligands used in competition experiments were dissolved in HPLC purity grade methanol. […] And then, 2 μM of protein was added and titrated with aliquots of 1 mM 1 − NPN to final concentrations of 2 to 20 μM. […] All values reported were obtained from three independent measurements. The corresponding to the maximum fluorescence emission was plotted against the ligand concentrations for the determination of the binding constants. The curves were linearized by Scatchard plots.

recombinant SlitCSP3 = recombinant SlitCSP3 (Spodoptera litura, UniProt A0A9J7EMU8); type: binding; conditions: for binding affinity to SlitCSP3 (in words): competitive binding with 1-NPN
Description: (§1) The curves were linearized by Scatchard plots.

recombinant SlitCSP11 = recombinant SlitCSP11 (Spodoptera litura, UniProt A0A0P0EM27); type: binding; conditions: for binding affinity to SlitCSP11 (in words): competitive binding with 1-NPN; for IC50 SlitCSP11: competitor's concentration halving the initial fluorescence, protein 2 μM, ligand 0 to 20 μM, 1-NPN probe; for Kd SlitCSP11: dissociation constant of the competitor calculated from IC50: KD = [IC50]/(1 + [1-NPN]/K1-NPN)
Description: as §1

[1] = competitor's concentration halving the initial fluorescence, protein 2 μM, ligand 0 to 20 μM, 1-NPN probe
[2] = dissociation constant of the competitor calculated from IC50: KD = [IC50]/(1 + [1-NPN]/K1-NPN)

recombinant SlitCSP11, sequence (A0A0P0EM27 entry or part of it): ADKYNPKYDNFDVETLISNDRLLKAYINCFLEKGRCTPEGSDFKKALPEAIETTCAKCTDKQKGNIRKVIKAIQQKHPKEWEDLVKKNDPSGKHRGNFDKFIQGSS
recombinant SlitCSP3, sequence (A0A9J7EMU8 entry or part of it): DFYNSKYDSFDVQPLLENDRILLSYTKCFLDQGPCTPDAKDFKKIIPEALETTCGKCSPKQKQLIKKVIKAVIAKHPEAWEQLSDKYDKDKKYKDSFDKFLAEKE
recombinant SlitCSP8, sequence (A0A0P0EUM0 18-128 with tags or gaps limits assumed): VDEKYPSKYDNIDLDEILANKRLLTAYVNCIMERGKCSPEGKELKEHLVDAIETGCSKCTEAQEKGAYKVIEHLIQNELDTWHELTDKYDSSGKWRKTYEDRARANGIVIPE

| Structure (SMILES) | binding affinity to SlitCSP8 (in words) (recombinant SlitCSP8) | IC50 SlitCSP8 (recombinant SlitCSP8) | Kd SlitCSP8 (recombinant SlitCSP8) | IC50 SlitCSP3 (recombinant SlitCSP3; [1]) | Kd SlitCSP3 (recombinant SlitCSP3; [2]) | IC50 SlitCSP11 (recombinant SlitCSP11) | Kd SlitCSP11 (recombinant SlitCSP11) | other results |
| --- | --- | --- | --- | --- | --- | --- | --- | --- |
| CCc1ccco1 [2-Ethylfuran] | poor affinities | u.d | u.d | u.d | u.d | u.d | u.d | binding affinity to SlitCSP3 (in words) (recombinant SlitCSP3): poor affinities; binding affinity to SlitCSP11 (in words) (recombinant SlitCSP11): poor affinities |
| O=Cc1ccc(CO)o1 [5-(Hydroxymethyl)furfural] |  | u.d | u.d |  |  | u.d | u.d |  |
| O=Cc1ccccc1 [Benzaldehyde] |  |  |  |  |  |  |  | IC50 (recombinant SlitCSP8): 5.26 µM; Kd (recombinant SlitCSP8): 7.47 µM |
| N#Cc1ccccc1 [Benzonitrile] | poor affinities | u.d | u.d | u.d | u.d | u.d | u.d | binding affinity to SlitCSP3 (in words) (recombinant SlitCSP3): poor affinities; binding affinity to SlitCSP11 (in words) (recombinant SlitCSP11): poor affinities |
| OCc1ccccc1 [Benzyl alcohol] | at low concentrations |  |  | u.d | u.d |  |  |  |
| CCCCN=C=S [Butyl isothiocyanate] |  | u.d | u.d | u.d | u.d |  |  |  |
| CCCCCCCCCC#N [Decanenitrile] | poor affinities | u.d | u.d | u.d | u.d | u.d | u.d | binding affinity to SlitCSP3 (in words) (recombinant SlitCSP3): poor affinities; binding affinity to SlitCSP11 (in words) (recombinant SlitCSP11): poor affinities |
| O=Cc1ccco1 [Furan-2-carboxaldehyde] |  | u.d |  | u.d | u.d |  |  |  |
| CCCCCCCCCCCCCCCC(=O)O [Hexadecanoic acid] |  | u.d | u.d | u.d | u.d |  |  |  |
| CCCCCC=O [Hexanal] |  |  |  | u.d |  | u.d | u.d | Kd SlitCSP3 (recombinant SlitCSP3): u.d; binding affinity to SlitCSP3 (in words) (recombinant SlitCSP3): poor affinities; binding affinity to SlitCSP11 (in words) (recombinant SlitCSP11): poor affinities |
| NC(=O)c1ccncc1 [Isonicotinamide] | at low concentrations |  |  |  |  |  |  |  |
| CC1CCC(C(C)C)C(O)C1 (stereo not shown) [Menthol] |  | ud | u.d |  |  |  |  |  |
| S=C=NCCc1ccccc1 [Phenethyl isothiocyanate] |  |  |  |  |  |  |  | IC50 (recombinant SlitCSP8): 4.34 µM; Kd (recombinant SlitCSP8): 6.17 µM |
| c1ccncc1 [Pyridine] |  | u.d | u.d |  |  |  |  | IC50 SlitCSP3 (recombinant SlitCSP3): u.d; Kd SlitCSP3 (recombinant SlitCSP3): u.d |
| C=Cc1ccccc1 [Styrene] |  | u.d | u.d | u.d | u.d |  |  |  |
| CC/C=C\CCO [cis-3-Hexen-1-ol] | at low concentrations |  |  | u.d | u.d | u.d | u.d |  |
| CCC/C=C/C(=O)O [trans-2-Hexenoic acid] |  |  |  |  |  | u.d | u.d |  |
